Reference: US7687546B2, “Quaternary ammonium compound, process for producing the same, therapeutic agent for cerebrovascular disorder, and therapeutic agent for heart disease” (Activus Pharma Co., Ltd., priority 2004, dated 2010)

Tests used:
[1] = system: middle cerebral artery occlusion and reperfusion model; experiment: Cerebral infarction model: middle cerebral artery occlusion and reperfusion (infarct area, neurological symptoms, motor function); type: in vivo, rats (Crj: Wistar strain); set-up: Improvement of neurological symptoms* (total score): scale not given here; conditions: rats, average of 10 animals
Procedure: In this example, a cerebral infarction model was prepared using rats in which reperfusion injury was induced by ischemia and then reperfusion of the middle cerebral artery using the obturator method. The efficacy of compounds of the present invention following single-dose intravenous administration at dose of 3 mg/kg was evaluated in terms of infarct area, neurological symptoms and motor function.
In addition, Edaravone (trade name, Mitsubishi Pharma Corporation) was used as a reference compound. The compounds of the present invention were stored in a refrigerator under protection from light, while Edaravone (trade name) was stored at room temperature under protection from light.
Compounds of present invention: 2 mL of physiological saline was added directly to tube containing 3 mg aliquots of a compound of the present invention to dissolve and prepare solutions having a concentration of 3 mg/2 mL. These samples were prepared at the time of use.
Edaravone: Since Edaravone is an injectable solution having a concentration of 30 mg/20 mL, the required amounts were divided up and used.
Rats: Crj: Wistar strain, males, age 7 weeks (Charles River Laboratories Japan, Inc.)
The test compounds were administered in a single dose into the tail vein using a 1 mL syringe and 27 G injection needle immediately before the reperfusion.
The rats were anesthetized by intraperitoneal administration of sodium pentobarbital at dose of 40 mg/kg (Nembutal (trade name), Dainippon Pharmaceutical Co., Ltd.), and a middle cerebral artery occlusion and reperfusion model was prepared in accordance with the method of Koizumi et al. (Non-Patent Document 2). Namely, the animals were warmed to 37° C. and held in the dorsal position while breathing spontaneously. A midline cervical incision was made, and then the right external carotid artery and right internal carotid artery were separated without damaging the vagus nerve. The right common carotid artery and right external carotid artery were ligated, and a suture was attached to the origin of the internal carotid artery in preparation for ligation and maintenance of occlusion following insertion of an obturator into the internal carotid artery. Moreover, a small incision was made in the right common carotid artery, an obturator provided with an approximately 17 mm silicon-coated suture was inserted into the internal carotid artery, and the internal carotid artery was ligated. Two hours after ligation, the obturator was removed under unanesthesia to reperfuse. Furthermore, flexion of the contralateral forelimb was confirmed 30 minutes after occlusion of the middle cerebral artery.
The following neurological symptoms were evaluated 24 hours after occlusion of the middle cerebral artery according to the evaluation method of Petullo et al. (Non-Patent Document 3). Neurological symptoms consisted of flexion of the forelimbs, torso twisting, resistance when pushing on the back of the right or left shoulder (Lateral push), circling, return of the hindlimb to the floor when lifted from the floor (Hindlimb placement), behavior when the head is faced downward on an angle (Inverted angle board) and a locomotor activity test.
Flexion of the forelimbs: flexion of the forelimbs was observed when the animals were lifted up by the tail.
Torso twisting: Torso twisting was observed when the animals were lifted up by the tail.
Lateral push: Resistance was observed when pushing on the back of the right or left shoulder.
Hindlimb placement: The animals were observed as to whether or not the hindlimb immediately returns to the floor after being lifted from the floor when placed on a horizontal floor.
locomotor activity: locomotor activity was observed when the animals were placed in a polycarbonate cage.
The aforementioned tests were scored based on the criteria described in the following documents, followed by calculation of total scores (see Table 4 “Neurological Symptom Evaluation Criteria and Scores”). […]

[2] = system: ouabain-induced arrhythmia model; experiment: Ouabain-induced arrhythmia model in guinea pigs; type: in vivo, guinea pigs (Hartley strain); conditions: dose 3 mg/kg i.v. immediately before ouabain infusion 3 μg/0.1 ml/min
From the text: After guinea pigs (Hartley strain, age 6 weeks) were anesthetized with urethane, induction electrodes were attached to the hind limbs and fore limbs, and standard 2-lead electrocardiograms were monitored with an animal electrocardiogram analysis system (ECG-01, Japan Energy). After confirming that the waveforms of the electrocardiogram and heart rate were within the normal range, an incision was made in the epidermis of the neck followed by inserting a breathing tube into the trachea and cannulating a polyethylene tube into the left external jugular vein and left common carotid artery.
Immediately after administering a compound of the present invention dissolved in a physiological saline solution into the right external jugular vein, ouabain was continuously infused at 3 μg/0.1 ml/min through the cannulated polyethylene tube into the left external jugular vein using a syringe pump (Atom Syringe Pump 1235 (trade name), Atom Medical Corporation).
In addition, the polyethylene tube cannulated in the left common carotid artery was connected to a pressure transducer (P23XL, Gould Electronics), and fed to a pressure processor signal conditioner (TA-11, Gould Electronics) to record blood pressure and heart rate on a thermal plate recorder.
The results were assessed by comparing the dose (μg/kg) of ouabain administered until the appearance of arrhythmia and occurrence of cardiac arrest (arrhythmia is not induced even if a large dose of ouabain is administered if antiarrhythmic effects are high). Furthermore, a solvent dose group (administered only physiological saline in an amount equal to that of the test drug groups), and a positive control group administered a typical antiarrhythmic disopyramide phosphate (physiological saline solution), were also provided.

[3] = system: model of myocardial ischemia reperfusion injury; experiment: Model of myocardial ischemia-reperfusion injury in dogs; type: in vivo; conditions: 3 mg/kg into the femoral vein 10 minutes before 20 minutes coronary occlusion, then reperfusion
Procedure: In order to confirm the efficacy of compounds of the present invention on myocardial infarction and arrhythmia caused by myocardial infarction, a pharmacological study was conducted using a model of myocardial ischemia reperfusion injury in dogs for the compounds used in Example 1.
Dogs having body weights of approximately 10 kg were anesthetized with pentobarbital (trade name) (30 mg/ml/kg) followed by shaving the surgical site after starting artificial respiration. The femoral vein and femoral artery were separated followed by cannulation. The femoral vein was used as the administration route for the test substances, while the femoral artery was used to measure blood pressure.
Next, after opening the left chest, making an incision in the pericardium and exposing the left ventricle, the left coronary artery was separated. A silk suture was passed through the coronary artery to occlude, followed by the attachment of an electromagnetic flow meter probe for measuring blood flow.
In addition, a pair of ultrasound crystal probes was fixed in position to measure changes in ventricular wall length as a indicator of myocardial contractile force, and indwelling needle was installed for measuring left intraventricular pressure. Compounds of the present invention were administered into the femoral vein at 3 mg/kg (15% physiological saline solution) followed 10 minutes later by occluding the coronary artery for 20 minutes, and subsequently reperfusing the coronary artery. Myocardial contraction following ischemia-reperfusion was compared for each group based on a value of 100 for myocardial contraction prior to ischemic reperfusion. In addition, comparisons were also made with a solvent control group administered only physiological saline.

[4] = system: model of myocardial ischemia-reperfusion injury; experiment: Model of myocardial ischemia-reperfusion injury in rats; type: in vivo; conditions: 3 mg/kg i.v. 5 minutes before 5 minutes coronary ligation, 8 rats per group
[5] = system: guinea pigs; experiment: Study of arrhythmia-inducing action in guinea pigs (without ouabain); conditions: up to 1 hour after administration, no ouabain
[6] = monitored 5 minutes after reperfusion

C[N+](C)(C)CCOc1cc(C(=O)O)ccc1O.[Cl-] [Compound 27, [2-(5-carboxy-2-hydroxy-phenoxy)-ethyl]-trimethylammonium Chloride]
Improvement of neurological symptoms* (total score) ([1]; single i.v. dose 3 mg/kg, 24 hours after occlusion, total score per Table 4, smaller = greater effect): 6.75 | Improvement of motor function (time stayed on rotor rod: seconds) ([1]; single i.v. dose 3 mg/kg, rotor rod 14 rotations per minute, maximum 1 minute): 47.5 s | Cerebral infarction reduction rate (%) ([1]; single intravenous dose 3 mg/kg immediately before reperfusion, vs physiological saline group, bigger = greater effect): 53.7% | Ouabain (μg/kg) administered until Cardiac arrest [2]: 258 µg/kg | Ouabain (μg/kg) administered until appearance of Arrhythmia [2]: 180 µg/kg | Myocardial Contraction (%) (Based on a value of 100% for prior to ischemia-reperfusion) [3]: 85% | Incidence of Ventricular Fibrillation (%) [4, 6]: 0% | Incidence of Ventricular Tachycardia (%) [4, 6]: 50.0% | Mortality Rate (%) ([4]; then reperfusion): 0% | Occurrence of Arrhythmia ([5]; dose 3 mg/kg): No | Occurrence of cardiac arrest ([5]; dose 3 mg/kg): No | Occurrence of Arrhythmia ([5]; dose 10 mg/kg): No | Occurrence of cardiac arrest ([5]; dose 10 mg/kg): No
